Test results: patent US7408071B2, “N-aryl pyrrolidine derivatives as beta-secretase inhibitors” (Bristol-Myers Squibb Company, priority 2006, dated 2008)

Molecular target: T1, BACE1 enzyme (Homo sapiens, UniProt P56817)
T1 construct: The HEK293-9B.A1 cell line, which overexpresses the BACE1 enzyme, was derived from HEK293 cells; endogenous in cells; washed 48,000xg membrane pellet/homogenate
Experiment: Radioligand displacement assay with a radiolabeled BACE inhibitor on HEK293-9B.A1 cell homogenate
Assay type: binding
Conditions: displacement of 1 nM tritiated radioligand, HEK293-9B.A1 homogenate, pH 5.0, 1.5 hr at 25° C.; read-out: Activity Rating (activity based on IC50 values)
Source text: There are a number of methods by which inhibitors of the BACE enzyme can be identified experimentally. The enzyme can be obtained from membrane samples from natural tissues or cultured cells or can be expressed recombinantly in a host cell by well known methods of molecular biology. The whole enzyme or a portion thereof can be expressed, for example, in bacterial, insect or mammalian cells to obtain a catalytically active enzyme species. The enzymatic activity and/or ligand binding capability of the enzyme can be assessed within these membrane samples, or the enzyme can be purified to varying extents. As an illustrative example, the nucleic acid sequence encoding the pro and catalytic domains of human BACE can be appended on the 5′ end with an untranslated and signal sequence from the gene for acetylcholinesterase, and on the 3′ end with a sequence encoding a poly-histidine tag. This cDNA can then be expressed in Drosophila melanogaster S2 cells in which the signal and pro sequences of the transcribed/translated protein are removed by cellular proteases and the catalytic domain, appended by a C-terminal poly-histidine tag, is secreted out into the cellular medium. The enzyme can then be purified from the culture medium by nickel affinity chromatography by methods well known to those trained in the art [Mallender, W. et al., (2001) “Characterization of recombinant, soluble beta-secretase from an insect cell expression system.” Mol. Pharmacol. 59: 619-626]. Similar strategies for expressing and purifying various forms of BACE in bacterial, mammalian and other cell types would be known to one skilled in the art. A preferred method for determining the potency of a test compound in binding to the BACE enzyme is by monitoring the displacement of a suitable radioligand.
Radioligand displacement assays with a radiolabeled BACE inhibitor (WO 2004 013098, compound 3, where the methoxy group is substituted for C(^3H)3) were carried out using standard methods (Keen, M. (1999) in Receptor Binding Techniques (Walker, J. M. ed) p. 106 Humana Press, Totowa, N.J.). The HEK293-9B.A1 cell line, which overexpresses the BACE1 enzyme, was derived from HEK293 cells (Simmons, N. L. (1990) A cultured human renal epithelioid cell line responsive to vasoactive intestinal peptide. Exp. Physiol. 75:309-19.) by RAGE™ (Harrington, J. J. et al. (2001) Creation of genome-wide protein expression libraries using random activation of gene expression. Nat. Biotechnol. 19:440-5.; U.S. Pat. Nos. 6,410,266 and 6,361,972). T225 flask cultures of HEK293-9B.A1 were grown to 80% confluency in DMEM supplemented with 2 mM L-glutamine, 10 μg/ml penicillin, 10 μg/ml streptomycin, 3 μg/ml puromycin, 100 nM methotrexate, and 10% fetal bovine serum (Invitrogen, Carlsbad, Calif.), harvested, and resuspended at 2×10^8 cells per 10 ml of lysis buffer consisting of 50 mM HEPES pH 7.0 containing a protease inhibitor cocktail of AEBSF 104 μM, aprotinin 80 nM, leupeptin 2 μM, bestatin 4 μM, pepstatin A 1.5 μM, and E-64 1.4 μM (0.1% of protease inhibitor cocktail P8340, Sigma-Aldrich, St. Louis, Mo.) at 4° C. The resuspended cells were homogenized using a Polytron (Brinkman, Westbury, N.Y.) at setting 6 for 10 sec., then centrifuged at 48,000×g for 10 min. The resulting pellet was washed by repeating the resuspension, homogenization and centrifugation steps. The final pellet was resuspended in buffer at 4° C. to yield a total protein concentration of 5 mg/ml, then aliquots were frozen in liquid nitrogen for further storage at −70° C. Immediately before carrying out a binding assay, an aliquot of cell homogenate was thawed and diluted to a concentration of 100 μg/ml in assay buffer consisting of 50 mM HEPES pH 5.0 and 0.1% CHAPSO. […]

T1 sequence (P56817 46-501): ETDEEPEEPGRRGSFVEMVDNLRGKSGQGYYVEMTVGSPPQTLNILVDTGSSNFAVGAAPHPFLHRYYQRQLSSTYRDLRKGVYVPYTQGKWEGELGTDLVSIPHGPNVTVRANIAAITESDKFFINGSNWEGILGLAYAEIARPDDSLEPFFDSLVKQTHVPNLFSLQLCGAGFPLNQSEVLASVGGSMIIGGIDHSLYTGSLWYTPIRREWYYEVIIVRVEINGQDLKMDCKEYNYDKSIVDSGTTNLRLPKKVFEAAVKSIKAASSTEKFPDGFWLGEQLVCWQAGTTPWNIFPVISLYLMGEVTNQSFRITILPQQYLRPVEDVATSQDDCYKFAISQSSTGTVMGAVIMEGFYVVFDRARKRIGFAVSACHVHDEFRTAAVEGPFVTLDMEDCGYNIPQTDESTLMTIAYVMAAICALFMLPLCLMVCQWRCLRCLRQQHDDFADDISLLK

SMILES | IC50 [nM]
COc1ccc(N2CCC[C@H]2C(=O)/N=C(\N)NCc2cc(Cl)c(N)c(Cl)c2)cc1 [Example 4, (S)—N-((4-Amino-3,5-dichlorobenzylamino)(amino)methylene)-1-(4-methoxyphenyl)pyrrolidine-2-carboxamide] | 100 to 1000
CC(=O)Nc1c(Cl)cc(CN/C(N)=N/C(=O)C2C3CC3CN2c2ccccc2)cc1Cl (stereo not drawn) [Example 34, cis-N-((4-Acetamido-3,5-dichlorobenzylamino)(amino)methylene)-3-phenyl-3-azabicyclo[3.1.0]hexane-2-carboxamide] | 100 to 1000
CO[C@@H]1C[C@@H](C(=O)/N=C(\N)NCc2cc(Cl)c(NC(C)=O)c(Cl)c2)N(c2ccccc2)C1 [Example 32, (2S,4R)—N-((4-Acetamido-3,5-dichlorobenzylamino)(amino)-methylene)-4-methoxy-1-phenylpyrrolidine-2-carboxamide] | < 100
CO[C@@H]1C[C@@H](C(=O)/N=C(\N)NCc2cc(Cl)c(NC(=O)CN(C)C)c(Cl)c2)N(c2ccccc2)C1 [Example 33, (2S,4R)—N-(Amino(3,5-dichloro-4-(2-(dimethylamino)acetamido)benzylamino)methylene)-4-methoxy-1-phenylpyrrolidine-2-carboxamide] | < 100
COc1ccc(N2CCC[C@H]2C(=O)/N=C(\N)NCc2cc(Cl)c(NC(=O)CN(C)C)c(Cl)c2)cc1 [Example 6, (S)—N-((3,5-Dichloro-4-(2-(dimethylamino)acetamido)benzylamino)-(amino)methylene)-1-(4-methoxyphenyl)pyrrolidine-2-carboxamide] | 100 to 1000
N/C(=N\C(=O)[C@@H]1CCCN1c1ccccc1)NCc1cc(Cl)c(N)c(Cl)c1 [Example 1, (S)—N-((4-Amino-3,5-dichlorobenzylamino)(amino)methylene)-1-phenylpyrrolidine-2-carboxamide] | 100 to 1000
COc1ccc(N2CCC[C@H]2C(=O)/N=C(\N)NCc2cc(Cl)c(NC(C)=O)c(Cl)c2)cc1 [Example 5, (S)—N-((4-Acetamido-3,5-dichlorobenzylamino)(amino)methylene)-1-(4-methoxyphenyl)pyrrolidine-2-carboxamide] | 100 to 1000
CC(=O)Nc1c(Cl)cc(CN/C(N)=N/C(=O)[C@@H]2CCCN2c2ccccc2)cc1Cl [Example 2, (S)—N-((4-Acetamido-3,5-dichlorobenzylamino)(amino)methylene)-1-phenylpyrrolidine-2-carboxamide] | 100 to 1000
CN(C)CC(=O)Nc1c(Cl)cc(CN/C(N)=N/C(=O)[C@@H]2CCCN2c2ccccc2)cc1Cl [Example 3, (S)—N-((3,5-Dichloro-4-(2-(dimethylamino)-acetamido)-benzylamino)(amino)methylene)-1-phenylpyrrolidine-2-carboxamide] | 100 to 1000
CN(C)CC(=O)Nc1c(Cl)cc(CN/C(N)=N/C(=O)[C@H]2CCCN2c2ccc(C(F)(F)F)cc2)cc1Cl [Example 31, (R)—N-(Amino(3,5-dichloro-4-(2-(dimethylamino)acetamido)-benzylamino)methylene)-1-(4-(trifluoromethyl)phenyl)pyrrolidine-2-carboxamide] | < 100
